From patent publication US20120258961A1, “4-AMINO-1,3-THIAZINE OR OXAZINE DERIVATIVE” (SHIONOGI & CO., LTD., priority 2009, published 2012)

What was measured:
[1] = BA test (oral absorption); format: in vivo; conditions: plasma; from AUCs of oral and intravenous administration groups, mouse or rats
Procedure: Materials and Methods for studies on oral absorption
(1) Animal: Mouse or Rats
(2) Breeding conditions: mouse or rats were allowed to freely take solid feed and sterilized tap water. (3) Dose and grouping: orally or intravenously administered at a predetermined dose; grouping was as follows (Dose depends on the compound) Oral administration: 1 to 30 mg/kg (n=2 to 3) Intravenous administration: 0.5 to 10 mg/kg (n=2 to 3) (4) Preparation of dosing solution: for oral administration, in a solution or a suspension state; for intravenous administration, in a solubilized state (5) Administration method: in oral administration, forcedly administer into ventriculus with oral probe; in intravenous administration, administer from caudal vein with a needle-equipped syringe (6) Evaluation items: blood was collected over time, and the plasma concentration of drug was measured by LC/MS/MS (7) Statistical analysis: regarding the transition of the plasma concentration, the area under the plasma concentration-time curve (AUC) was calculated by non-linear least squares program WinNonlin (Registered trade name), and the bioavailability (BA) was calculated from the AUCs of the oral administration group and intravenous administration group

[2] = system: Neuroblastoma SH-SY5Y cells (SH/APPwt) with human wild-type β-APP excessively expressed; assay: Measurement of β-amyloid (Aβ) production inhibitory effect in cell; format: cell-based; conditions: 24 hours, Amyloid β 1-40 HTRF in culture supernatant, read-out: Test example 2 IC50 (amount needed to inhibit Aβ production by 50%)
Procedure: Neuroblastoma SH-SY5Y cells (SH/APPwt) with human wild-type β-APP excessively expressed therein were prepared at 8×10^5 cells/mL, and 150 μl portions thereof were inoculated into each well of a 96-well culture plate (Falcon). The cells were cultured for 2 hours at 37° C. in a 5% gaseous carbon dioxide incubator. Then, a solution which had been preliminarily prepared by adding and suspending the test compound (DMSO (dimethyl sulfoxide) solution) so as to be 2 μl/50 μl medium was added to the cell sap. Namely, the final DMSO concentration was 1%, and the amount of the cell culture was 200 μl. After the incubation was performed for 24 hours from the addition of the test compound, 100 μl of the culture supernatant was collected from each fraction. The amount of the Aβ in each fraction was measured.
The Aβ amount was measured as follows. 10 μl of a homogeneous time resolved fluorescence (HTRF) measurement reagent (Amyloid β 1-40 peptide; IBA Molecular Holding, S.A.) and 10 μl of the culture supernatant were put into a 384-well half area microplate (black microplate, Costar) and mixed with each other, and then left standing overnight at 4° C. while the light was shielded. Then, the fluorescence intensity (excitation wavelength: 337 nm, measurement wavelength: 620 nm and 665 nm) was measured with a Wallac 1420 multilabel counter (Perkin Elmer life sciences). The Aβ amount was determined from the count rate at each measurement wavelength (10000×Count 665/Count 620), and the amount needed to inhibit Aβ production by 50% (IC50) was calculated from at least six different dosages.

[3] = target: T1, Recombinant human BACE1 (Homo sapiens, UniProt P56817); assay: Assay of BACE1 inhibiting activity; format: biochemical; conditions: Recombinant human BACE1 7.4 nmol/L, substrate peptide 18 nmol/L, pH 5.0, 30° C., 3 hours; read-out: Test example 1 IC50 (BACE1 inhibiting activity)
T1 construct: purchased R&D Systems
T1 sequence (P56817 46-501): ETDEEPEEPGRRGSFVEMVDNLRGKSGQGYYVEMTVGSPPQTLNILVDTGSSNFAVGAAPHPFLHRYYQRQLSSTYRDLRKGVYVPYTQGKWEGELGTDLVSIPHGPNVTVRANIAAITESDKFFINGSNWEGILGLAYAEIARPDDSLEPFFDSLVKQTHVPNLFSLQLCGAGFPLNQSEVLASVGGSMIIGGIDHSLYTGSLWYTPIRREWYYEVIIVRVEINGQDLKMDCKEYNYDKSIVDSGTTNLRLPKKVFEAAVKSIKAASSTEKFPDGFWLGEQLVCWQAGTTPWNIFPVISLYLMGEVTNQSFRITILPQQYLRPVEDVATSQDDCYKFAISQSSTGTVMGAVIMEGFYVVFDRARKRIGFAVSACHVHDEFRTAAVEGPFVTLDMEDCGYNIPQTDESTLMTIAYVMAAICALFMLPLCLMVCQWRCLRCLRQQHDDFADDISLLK
Procedure: 48.5 μL of substrate peptide solution (Biotin-XSEVNLDAEFRHDSGC-Eu: X=ε-amino-n-capronic acid, Eu=Europium cryptate) was added to each well of 96-hole half-area plate (a black plate: Costar), and after addition of 0.5 μl of the test compound (dissolved in […]) and 1 μl of Recombinant human BACE1 (R&D Systems), the reaction mixture was incubated at 30° C. for 3 hours. The substrate peptide was synthesized by reacting Cryptate TBPCOOH mono SMP (CIS bio international) with Biotin-XSEVNLDAEFRHDSGC (Peptide Institute, Inc.). The final concentrations of the substrate peptide and Recombinant human BACE1 were adjusted to 18 nmol/L and 7.4 nmol/L, respectively, and the reaction was performed in sodium acetate buffer (50 mmol/L sodium acetate, pH 5.0, 0.008% Triton X-100). After the incubation for reaction, 50 μl of 8.0 μg/ml Streptavidin-XL665 (CIS bio international) dissolved in phosphate buffer (150 mmol/L K2HPO4—KH2PO4, pH 7.0, 0.008% Triton X-100, 0.8 mol/L KF) was added to each well and left stand at 30° C. for an hour. After then, fluorescence intensity was measured (excitation wavelength: 320 nm, measuring wavelength: 620 nm and 665 nm) using Wallac 1420 multilabel counter (Perkin Elmer life sciences). Enzymatic activity was determined from counting ratio of each wavelength (10,000×Count 665/Count 620) and 50% inhibitory concentration (IC50) against the enzymatic activity was calculated.

[4] = target: T2, CYP3A4 enzyme expressed in Escherichia coli (Homo sapiens, UniProt P08684); assay: CYP3A4 fluorescent MBI test; format: in vitro ADME; conditions: substrate 7-BFC
T2 construct: host or cells: Escherichia coli
T2 sequence (P08684 whole entry): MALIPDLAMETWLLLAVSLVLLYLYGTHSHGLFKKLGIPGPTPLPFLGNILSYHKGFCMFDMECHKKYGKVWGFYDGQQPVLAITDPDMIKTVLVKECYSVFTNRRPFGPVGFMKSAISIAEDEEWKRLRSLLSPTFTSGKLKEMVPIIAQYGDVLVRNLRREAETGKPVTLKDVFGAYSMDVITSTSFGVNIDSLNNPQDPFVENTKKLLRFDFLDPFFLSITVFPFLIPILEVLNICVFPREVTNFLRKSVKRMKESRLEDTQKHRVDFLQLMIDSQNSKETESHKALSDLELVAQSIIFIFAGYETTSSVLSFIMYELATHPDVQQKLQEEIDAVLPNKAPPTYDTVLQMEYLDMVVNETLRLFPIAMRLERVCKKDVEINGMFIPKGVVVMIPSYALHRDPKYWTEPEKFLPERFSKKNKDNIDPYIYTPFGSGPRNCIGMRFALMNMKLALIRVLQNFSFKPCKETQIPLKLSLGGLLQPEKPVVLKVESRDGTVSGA
Procedure: The CYP3A4 fluorescent MBI test is a test of investigating enhancement of CYP3A4 inhibition of a compound by a metabolism reaction, and the test was performed using, as CYP3A4 enzyme expressed in Escherichia coli and employing, as an index, a reaction in which 7-benzyloxytrifluoromethylchmarin (7-BFC) is debenzylated by the CYP3A4 enzyme to produce a metabolite, 7-hydroxytrifluoromethylchmarin (HFC) emitting fluorescent light.
The reaction conditions were as follows: substrate, 5.6 μmol/L 7-BFC; pre-reaction time, 0 or […]; reaction time, 15 minutes; reaction temperature, 25° C. […]
An enzyme in a K-Pi buffer (pH 7.4) and a test drug solution as a pre-reaction solution were added to a 96-well plate at the composition of the pre-reaction, a part of it was transferred to another 96-well plate so that it was 1/10 diluted by a substrate in a K-Pi buffer, NADPH as a co-factor was added to initiate a reaction as an index (without preincubation) and, after a predetermined time of a reaction, acetonitrile/0.5 mol/L Tris(trishydroxyaminomethane)=4/1 was added to stop the reaction. […] For the plate on which each index reaction had been performed, a fluorescent value of 7-HFC which is a metabolite was measured with a fluorescent plate reader. […]

[5] = Solubility test (Test Example 7(1)); format: physicochemical; conditions: aqueous buffer, kinetic from dmso stock; medium (JP-I, JP-II), 2% DMSO solution, after 4 hours; read-out: Solubility assessed by 3 stages from turbidity
Procedure: A 2-fold dilution series (12 points) of a 10 mM solution of a test compound in DMSO was added to a medium (JP-I, JP-II) (2%), and solubility was assessed by 3 stages (High; >40 μM, Medium; 3-40 μM, Low; <3 μM) from a turbidity after 4 hours (crystallization information).

[6] = Brain distribution studies; format: in vivo; conditions: rat, intravenous 0.5 mg/mL/kg, 30 minutes later, read-out: Brain Kp value (area ratio brain/plasma)
Procedure: Intravenous administration is carried out to a rat by 0.5 mg/mL/kg dosage of a text compound. […] Then, the brain was extracted and 20-25% of homogenate thereof was prepared with distilled water. On the other hand, the obtained blood is used as plasma after centrifuging. Then, to the brain sample was added the control plasma at 1:1. To the plasma samples was added the control brains at 1:1. Each sample was measured using LC/MS/MS. The obtained area ratio (a brain/plasma) was used for the brain Kp value.

[7] = system: CYP1A2, CYP2C9, CYP2C19, CYP2D6, CYP3A4; assay: in vitro; conditions: human, microsomes
Source text: Using commercially available pooled human hepatic microsome, and employing, as markers, O-deethylation of 7-ethoxyresorufin (CYP1A2), methyl-hydroxylation of tolbutamide (CYP2C9), 4′-hydroxylation of mephenyloin (CYP2C19), O-demethylation of dextromethorphan (CYP2D6) and hydroxylation of terfenadine (CYP3A4) as typical substrate metabolism reactions of human main five CYP enzyme forms (CYP1A2, 2C9, 2C19, 2D6, 3A4), an inhibitory degree of each metabolite production amount by a test compound was assessed. […]
Each five kinds of substrates, human hepatic microsome, and a test drug in 50 mmol/L Hepes buffer as a reaction solution was added to a 96-well plate at the composition as described above, NADPH, as a cofactor was added to initiate metabolism reactions as markers and, after the incubation at 37° C. for 15 minutes, a methanol/acetonitrile=1/1 (v/v) solution was added to stop the reaction. After the centrifugation at 3000 rpm for 15 minutes, resorufin (CYP1A2 metabolite) in the supernatant was quantified by a fluorescent multilabel counter and tributamide hydroxide (CYP2CP metabolite), mephenyloin 4′ hydroxide (CYP2C19 metabolite), dextromethorphan (CYP2D6 metabolite), and terfenadine alcohol (CYP3A4 metabolite) were quantified by LC/MS/MS. […]

[8] = Metabolism stability test; format: in vitro ADME; conditions: human liver microsomes 0.5 mg protein/mL, 1 mmol/L NADPH, 37° C., 30 minutes
Procedure: Using a commercially available pooled human hepatic microsomes, a test compound was reacted for a constant time, a remaining rate was calculated by comparing a reacted sample and an unreacted sample, thereby, a degree of metabolism in liver was assessed.
A reaction was performed (oxidative reaction) at 37° C. for 0 minute or 30 minutes in the presence of 1 mmol/L NADPH in 0.2 mL of a buffer (50 mmol/L Tris-HCl pH 7.4, 150 mmol/L potassium chloride, 10 mmol/L magnesium chloride) containing 0.5 mg protein/mL of human liver microsomes. After the reaction, 50 μL of the reaction solution was added to 100 μL of a methanol/acetonitrile=1/1 (v/v), mixed and centrifuged at 3000 rpm for 15 minutes. The test compound in the supernatant was quantified by LC/MS/MS, and a remaining amount of the test compound after the reaction was calculated, letting a compound amount at 0 minute reaction time to be 100%.

Compound	IC50 [2]	further results
Cc1cnc(C(=O)Nc2ccc(F)c(C3(C)N=C(N)CCS3)c2)cn1 (stereo not shown) [Compound I-1]	≤ 1000 nM	bioavailability [1]: 93.4%
CC1(c2cc(NC(=O)c3ncc(Cl)cc3Cl)ccc2F)N=C(N)CCS1 (stereo not shown) [Compound I-2]	< 1 nM	IC50 [3]: 10 nM
CC1(c2cc(NC(=O)c3ccc(C#N)cn3)ccc2F)N=C(N)c2ccccc2S1 (stereo not shown) [Compound I-3]	≤ 1000 nM	–
CC1(c2cc(NC(=O)c3ccc(C#N)cn3)ccc2F)N=C(N)c2ccccc2O1 (stereo not shown) [Compound I-4]	≤ 1000 nM	CYP3A4 fluorescent MBI: difference between IC50 values without and with preincubation [4]: (−) (when the difference is 3 μM or less, this was defined as (−))
CC1(c2cc(NC(=O)c3ccc(C#N)cn3)ccc2F)N=C(N)c2cc(Cl)ccc2O1 (stereo not shown) [Compound I-5]	≤ 1000 nM	–
CC1(c2cc(NC(=O)c3ccc(C#N)cn3)ccc2F)N=C(N)CCS1 (stereo not shown) [Compound I-6]	≤ 1000 nM	–
Cc1cnc(C(=O)Nc2ccc(F)c(C3(C)N=C(N)c4ccccc4S3)c2)cn1 (stereo not shown) [Compound I-7]	≤ 1000 nM	–
COc1cnc(C(=O)Nc2ccc(F)c(C3(C)N=C(N)c4ccccc4S3)c2)cn1 (stereo not shown) [Compound I-8]	19 nM	IC50 [3]: 66 nM
CC1(c2cc(NC(=O)c3ccc(C#N)cn3)ccc2F)N=C(N)c2cc(N)ccc2O1 (stereo not shown) [Compound I-9]	≤ 1000 nM	solubility at 4 h [5]: > 40 µM
CC1(c2cc(NC(=O)c3ccc(C#N)cn3)ccc2F)N=C(N)c2ccc(N)cc2O1 (stereo not shown) [Compound I-10]	≤ 1000 nM	–
CC1(c2cc(NC(=O)c3ccc(C#N)cn3)ccc2F)N=C(N)c2cc(F)ccc2O1 (stereo not shown) [Compound I-11]	≤ 1000 nM	Kp at 0.5 h [6]: 5.8
CC1(c2cc(NC(=O)c3ccc(C#N)cn3)ccc2F)N=C(N)c2ccc(F)cc2O1 (stereo not shown) [Compound I-12]	15 nM	IC50 [3]: 61 nM
Cc1cnc(C(=O)Nc2ccc(F)c(C3(C)N=C(N)CCS3(=O)=O)c2)cn1 (stereo not shown) [Compound I-19]	≤ 1000 nM	IC50 at 15 min [7]: > 17000 nM; Remaining amount of the test compound after the reaction (metabolism stability) [8]: 97%
